# Experimental data reported in PubChem BioAssay (NCI).
#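 In this assay, cells in 96-well plates receive the compound at five concentrations for 48 hours. Endpoints are linearly interpolated between the surrounding concentrations. At the TGI there is no net growth.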
# Columns and labels:
# Test in all cases: inhibition of tumour cell growth, NCI panel, 48 h
# HOP-92 NSCLC = tested on: HOP-92 NSCLC
# MDA-MB-435 = tested on: MDA-MB-435
# HS 578T breast = tested on: HS 578T breast
# SNB-75 CNS = tested on: SNB-75 CNS
# HT29 colon = tested on: HT29 colon
# OVCAR-8 ovarian = tested on: OVCAR-8 ovarian
# NCI-H460 lung = tested on: NCI-H460 lung
# MCF7 breast = tested on: MCF7 breast
# EKVX NSCLC = tested on: EKVX NSCLC
# LOX IMVI melanoma = tested on: LOX IMVI melanoma
Structure (SMILES),TGI (HOP-92 NSCLC) [µM],TGI (MDA-MB-435) [µM],TGI (HS 578T breast) [µM],TGI (SNB-75 CNS) [µM],TGI (HT29 colon) [µM],TGI (OVCAR-8 ovarian) [µM],TGI (NCI-H460 lung) [µM],TGI (MCF7 breast) [µM],TGI (EKVX NSCLC) [µM],TGI (LOX IMVI melanoma) [µM]
Cn1c(=O)c2sc3cc4c(cc3c2c2ccccc21)sc1c(=O)n(C)c2ccccc2c14,99.1,> 100,> 100,93.6,> 100,> 100,> 100,> 100,> 100,–
O=C(NC/C=C/Br)NC1CCNc2ccccc21 (stereo not drawn),–,88.9,–,> 100,31.2,> 100,> 100,47.9,92.6,56.8
CCC1CCC2c3c([nH]c4ccccc34)C3C(=O)N(c4ccc(OC)cc4)C(=O)C3C2C1 (stereo not drawn),–,> 100,66.8,41.1,> 100,> 100,> 100,> 100,> 100,–
Cc1cccc(C(O)c2cccnc2)c1O (stereo not drawn),–,> 100,> 100,> 100,> 100,> 100,> 100,> 100,> 100,> 100
CCOC(=O)c1c(-c2ccc(OC)c(O)c2)c(C#N)c(=S)n(C2OC(CO)C(O)C(O)C2O)c1-c1ccccc1 (stereo not drawn),–,> 100,> 100,–,> 100,–,> 100,–,> 100,> 100
C=C1C(=O)O[C@H]2[C@H]([C@H](C)CCCC(C)=O)O[C@H]([C@@]3(C)CCC(=O)O3)C[C@@H]12,> 100,> 100,> 100,> 100,> 100,> 100,> 100,–,> 100,64.4
CC1(C)CC(=O)C(=CN2C(=O)CNC2=S)C(=O)C1,> 100,> 100,> 100,> 100,–,> 100,> 100,> 100,> 100,–
Cc1cccc2c1C(=O)[C@@](C)([C@]1(C)Nc3cccc(C)c3C1=O)N2,–,> 100,> 100,> 100,> 100,> 100,> 100,> 100,> 100,> 100
N#Cc1c(C#N)c(-c2ccccc2)n(/N=C\c2ccccc2)c1N,68.4,> 100,61.3,74.2,83.1,> 100,–,> 100,63.9,32.8
C=C1CC(OC)(C(O)C(=O)N[C@H]2OCO[C@H]3C2O[C@H](C[C@H](O)COC)C(C)(C)C3OC)O[C@H](C)[C@@H]1C (stereo partly drawn),–,–,–,> 0.00772,> 0.00772,> 0.00772,> 0.00772,> 0.00772,> 0.00772,–
CC1(C)CC2(C)OC(=N)C1(C#N)C2(C#N)C#N (stereo not drawn),10.5,33.3,37.7,–,13.4,46.8,–,24.8,19.4,3.09
Cc1ccc2c(=O)c(C(=O)N(CCO)CCO)c[nH]c2n1,–,> 100,> 100,–,> 100,> 100,> 100,> 100,> 100,> 100
C=C1C(=O)O[C@H]2C/C(C=O)=C\[C@H]3O[C@H]3/C(COC(=O)C(C)C)=C/CC12 (stereo partly drawn),–,18.9,22,–,12.8,13.3,26.8,50,29.8,11.8
CC(=O)Nc1ccc(/C=C(\NC(=O)c2ccccc2)C(=O)NNS(=O)(=O)c2ccc(C)cc2)cc1,> 100,–,–,> 100,> 100,> 100,> 100,–,> 100,38.2
c1ccc(CNc2ncnc3n[nH]nc23)cc1,> 100,> 100,–,> 100,> 100,> 100,–,> 100,> 100,> 100
COC(=O)[C@@H]1O[C@]12[C@@H](CO[Si](C)(C)C(C)(C)C)O[C@@H](n1cc(C)c(=O)[nH]c1=O)[C@@H]2O[Si](C)(C)C(C)(C)C,–,59.2,42.5,> 100,18.1,53.4,> 100,–,53.6,10.2
C=C(C(=O)OC)[C@H]1CC/C(C)=C/CC/C(C)=C/CC[C@@]2(C)O[C@@H]2C1,35.1,58.5,–,> 100,34.4,31.4,–,37.8,39.5,28.8
CN(C)C=Nc1nncc2n[nH]nc12,–,> 100,> 100,> 100,> 100,> 100,> 100,> 100,> 100,–
CCOC(=O)C[n+]1ccc2c([nH]c3cc(OC)ccc32)c1C,> 100,–,–,> 100,> 100,> 100,> 100,> 100,> 100,> 100
CCCC(=O)OC1CC(n2cc(F)c(=O)[nH]c2=O)OC1CO (stereo not drawn),–,> 10,> 10,> 8.14,> 10,> 10,> 10,> 10,> 10,> 10
COc1ccccc1N1C(=O)/C(=C\c2cccc(Oc3ccccc3)c2)S(=O)(=O)C1c1ccccc1 (stereo not drawn),> 100,> 100,–,–,–,–,> 100,> 100,> 100,> 100
CC1(C)Oc2ccc3c(=O)c4ccccc4oc3c2C1C(=O)O (stereo not drawn),–,> 100,> 100,–,> 100,> 100,–,> 100,> 100,–
CCOC(=O)N1C(=S)C(C(=O)OC)(C(=O)OC)N=C1C,> 100,> 100,–,> 100,–,> 100,> 100,> 100,> 100,> 100
COc1ccc(N2C(=O)C(N3C(=O)C=CC3=O)C2C=O)cc1 (stereo not drawn),> 100,–,–,> 100,> 100,> 100,> 100,–,> 100,> 100
